According to patent publication US20060030562A1, “Use of an inhibitor of cathepsin-S-or-B to treat or prevent chronic obstructive pulmonary disease” (AVENTIS PHARMACEUTICALS INC., priority 2003, published 2006):
Entries after “also recorded” stand apart in the source; their conditions may differ. Peptide text beside a SMILES is read from it. * marks the point of attachment. Cbz = O=C(OCc1ccccc1)*; CH2F = FC*

Assays:
Type in all cases: in vivo
[1] = system: CC10-rtTA-IFN-γ transgene (+) mice; assay: IFN-γ-induced emphysema (lung volume, chord length, histology, compliance) in transgenic mice; settings: transgene (+) mice on dox, Z-VAD-fmk 3 μg/kg/day I.P., 14150 10 mg/kg/day by gavage, CA074 10 mg/Kg/day, leupeptin 15 mg/kg I.P., vs vehicle
Excerpt: (§1) CC10-rtTA-IFN-γ mice that had been generated in our laboratory and bred for at least 10 generations onto a Balb/c background were used in these studies. These are dual transgene positive animals in which the reverse tetracycline transactivator (rtTA) drives the expression of the murine IFN-γ gene in a lung-specific and externally regulatable fashion. The transgene in these mice is activated by adding doxycycline (dox) to the animal's drinking water. These mice were maintained as dual transgene (+) heterozygotes (refered to as transgene (+) hereafter).
(§2) CC 10-rtTA-IFN-γ mice and littermate controls were maintained on normal water until they were 4-6 weeks old.
(§3) Animals were sacrificed via cervical dislocation, a median sternotomy was performed, and right heart perfusion was accomplished with calcium- and magnesium-free PBS to clear the pulmonary intravascular space. The lungs were then fixed to pressure (25 cm) with neutral buffered 10% formalin, fixed overnight in 10% formalin, embedded in paraffin, sectioned at 5 μm and stained. Hematoxylin and eosin (H&E) stains were performed in the Research Histology Laboratory of the Department of Pathology at Yale University School of Medicine.
In brief, the trachea was cannulated, the lungs were degassed and the lungs and heart were removed en bloc and inflated with PBS at 25 cm of pressure. The size of the lung was evaluated via volume displacement. Compliance was calculated as the change in volume divided by the change in pressure.

[2] = system: CC10-rtTA-IFN-γ transgene (+) mice; assay: IFN-γ-induced lung cell apoptosis (TUNEL) in transgenic mice; settings: for IFN-γ-induced apoptosis (TUNEL): transgene (+) mice on dox, 14150 10 mg/kg/day by gavage, CA074 10 mg/Kg/day, leupeptin 15 mg/kg I.P., vs vehicle
Excerpt: as §1, §2
End labeling of exposed 3′-OH ends of DNA fragments in paraffin embedded tissue was undertaken with the TUNEL in situ cell death detection kit AP (Roche Diagnostics, Calif., USA) using the instructions provided by the manufacturer. After staining, 20 fields of alveoli were randomly chosen and 2000 nuclei were counted. The labeled cells were expressed as percentage of total nuclei.

[3] = system: CC10-rtTA-IFN-γ transgene (+) mice; assay: Lung mRNA encoding cathepsins and MMPs (RT-PCR, real-time RT-PCR); settings: transgene (+) mice on dox 2 weeks
[4] = system: CC10-rtTA-IFN-γ transgene (+) mice; assay: IFN-γ-induced BAL and tissue inflammation; settings: transgene (+) mice on dox 2 weeks
Procedure: Mice were euthanized, the trachea was isolated by blunt dissection, and tubing was secured in the airway. Two volumes of 1 mL of PBS with 0.1% BSA were then instilled and gently aspirated and pooled. Each BAL fluid sample was centrifuged, and the supernatants were stored in −70° C. until used The levels of IFN-γ were determined using a commercial ELISA (R&D Systems Inc., Minneapolis, Minn., USA) as per the manufacturer's instructions.
as §3

In the case of `CCCNC(=O)[C@H]1O[C@@H]1C(=O)N[C@H](C(=O)N1CCC[C@H]1C(=O)O)[C@@H](C)CC` (relative stereo) [CA074, N-(L-3-trans-propylcarbamoyl-oxirane-2-carbonyl)-L-isoleucyl-L-proline], the “IFN-γ-induced emphysema (lung volume, chord length, alveolar histology, compliance)” value [1] was “significant decreases” and the “IFN-γ-induced apoptosis (TUNEL)” value [2] was “significant decreases”.

`COC(=O)C[C@H](NC(=O)[C@H](C)NC(=O)[C@@H](NC(=O)OCc1ccccc1)C(C)C)C(=O)CF` [Z-VAD-fmk] (Cbz-Val-Ala-Asp(OMe)-CH2F) was tested, and the “IFN-γ-induced increase in mRNA encoding cathepsin B, cathepsin S and MMPs-2 and -14” value [3] was “markedly ameliorated”, the “levels of mRNA encoding cathepsin H and MMPs-9 and -12” value [3] was “not similarly altered” and the “IFN-γ-induced emphysema (lung volume, chord length, alveolar histology, compliance)” value [1] was “decreased the emphysema generating effects of IFN-γ”. For the same compound, the “IFN-γ-induced emphysema (lung volume, chord length, alveolar histology, compliance)” value ([1]; listed as Z-VAD-fink) was “only partially abrogated”, the “IFN-γ-induced BAL total cell, neutrophil, lymphocyte and macrophage alterations and tissue inflammation” value [4] was “markedly ameliorated” and the “decrease of the levels of IFN-γ-induced apoptosis” value ([2]; transgene (+) mice on dox 2 weeks, Z-VAD-fmk 3 μg/kg/day I.P. vs vehicle) was no less than 85%.

For `CC[C@H](NC(=O)[C@H](CS(=O)(=O)CC(C)C)NC(=O)N1CCOCC1)C(=O)c1nc2ccccc2o1` [compound 14150], the “IFN-γ-induced emphysema (lung volume, chord length, alveolar histology, compliance)” value [1] was “significant decreases; also recorded: significantly inhibited” and the “IFN-γ-induced apoptosis (TUNEL)” value [2] was “significant decreases; also recorded: significantly inhibited”.

For `CC(=O)N[C@@H](CC(C)C)C(=O)N[C@@H](CC(C)C)C(=O)N[C@H](C=O)CCCNC(=N)N` [leupeptin], the “IFN-γ-induced increase in mRNA encoding cathepsin B, cathepsin S and MMPs-2 and -14” value [3] was “decreased” and the “MMP-9 mRNA induction” value [3] was “induced in am leupeptin-dependent fashion”.
